# Data from US8298781B2, “Compositions and methods for characterizing and regulating olfactory sensation” (Duke University, priority 2007, dated 2012).
# Test system: human subjects
# Assay: Human olfactory psychophysics: detection thresholds (single staircase method)
# Assay type: in vivo
# Conditions: for detection threshold, RT/S84N subjects vs RT/RT controls: N=3 RT/S84N; for detection threshold, RT/P79L subjects vs RT/RT subjects: N=12 RT/P79L; for detection threshold, OR7D4 RT/WM vs RT/RT subjects: binary dilutions in propylene glycol, N=49 RT/WM, N=47 RT/RT
# Protocol: Human olfactory psychophysics. All human subjects gave informed consent to participate in this study and were tested in a well-ventilated room. Normal human subjects (n=412; 218 female, 194 male; median age 34, age range 19-75) were pre-screened to exclude pregnant women and those with medical conditions causing general impairment of the sense of smell. All subjects completed two replicates of the test separated by at least 4 days. Odors were presented in amber vials as previously described (see, e.g., Keller, A., et al., Nat Neurosci 7, 337-338 (2004); herein incorporated by reference in its entirety) using bar-coded symbols to ensure that subjects were blind to the identity of all odors. The intensity and valence of 66 odors at two concentrations (“high” and “low”) and two solvents was rated using a 7-point scale. Thresholds were calculated using the single staircase method with seven reversals (see, e.g., Doty, R. L., et al., Chem Senses 20, 645-656 (1995); Doty, R. L. & Laing, D. G. in Handbook of Olfaction and Gustation (ed. Doty, R. L.) pp. 203-228 (Marcel Dekker, Inc., New York, 2003); each of which are herein incorporated by reference in their entireties). Threshold tests included both steroids as binary dilutions from […] (binary dilution 6) to 1: 134,217,728 (binary dilution 27). Subjects who could not reliably distinguish a 1:64 dilution of androstenone and androstadienone from solvent were operationally defined as anosmic to these odorous steroids, although it could not be excluded that these subjects could detect higher concentrations of these steroids (see, e.g., Bremner, E. A., et al., Chem Senses 28, 423-432 (2003); herein incorporated by reference in its entirety). Odor profiling used the method established by Dravnieks, et al. (see, e.g., Dravnieks, A., et al., Science 218, 799-801 (1982); herein incorporated by reference in its entirety).
# For the descriptors task, the following odors and concentrations were used: propylene glcol (pure), pentadecalactone 1/500, vanillin 1/200, and androstenone 1/10,000. The following odors were used for thresholding: adrostenone and androstadienone. These were tested at an initial concentration of binary dilution 27 […] in propylene glycol and moved from there in binary steps. The range of dilutions tested was from binary dilution 27 (1:134,217,728) to binary dilution 6 (1:64). Odor vials used for intensity and valence ratings and the assigning of descriptors to odors were used for 40 sessions and then replaced by a new set. Master stocks of each odor were established at the beginning of the study to avoid intertrial variability in odor concentrations.
# Threasholding. Detection thresholds (FIG. 3c and FIG. 5b-c) were determined using the “Single Staircase Threshold Detection Method” (see, e.g., Buck, L., et al., Cell 65, 175-187 (1991); Menashe, I., et al., Nat Genet. 34, 143-144 (2003); each of which are herein incorporated by reference in their entireties). This method produced very accurate data on the threshold concentration of a given dour and was easy to administer and for the subjects to perform. The thresholds for each subject on two occasions was tested at least four days apart. This helped to control for inter-trial variability in olfactory performance. The average difference between the thresholds determined on the two days was three binary dilution steps for andmstenone and five for androstadienone.
# A custom computer-controlled thresholding test was administered as a self-test to each subject. Briefly, subjects were instructed to sniff two vials, one containing the solvent, the other a dilution of the odorant. Both vials have barcode labels and the procedure was done at a computer equipped with a scanner. Subjects are asked to scan the vial with the stronger odor. Depending on their answer, the procedure was repeated at an adjusted concentration. […]
SMILES,"detection threshold, RT/S84N subjects vs RT/RT controls","detection threshold, RT/P79L subjects vs RT/RT subjects","detection threshold, OR7D4 RT/WM vs RT/RT subjects","incidence of specific anosmia, OR7D4 RT/WM vs RT/RT subjects (p<0.05, chi-square test)","proportion of subjects anosmic, RT/P79L vs RT/RT subjects (p=0.018, chi-square analysis)"
"C[C@]12CCC(=O)C[C@@H]1CC[C@@H]1[C@@H]2CC[C@]2(C)C=CC[C@@H]12 [androstenone, 5α-androst-16-en-3-one]",higher,lower,higher detection thresholds,greater incidence,lower
"C[C@@]12C=CC[C@H]1[C@@H]1CCC3=CC(=O)CC[C@]3(C)[C@H]1CC2 [androstadienone, androsta-4,16-dien-3-one]",higher,lower,higher detection thresholds,,
